Read-outs that look alike come from different tables or passages of the source.
What was measured:
Assay in all cases: microbe, parasite or virus in culture
Format in all cases: cell-based, Hepatitis C virus (HCV)
HCV replicon 1AY93H = conditions: Replicon Assay A
Summary of the method: (§1)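 Compound is added to replicon cells plated at 2000 cells/well (0.5% DMSO, 5% FBS). After 3 days the cells are washed and lysed, and HCV RNA and cyclophilin mRNA are quantified by multiplex RT-PCR against a standard curve of known replicon total RNA.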

HCV replicon 1A = conditions: Replicon Assay A
Summary of the method: as §1

HCV replicon 2B = conditions: Replicon Assay A
Summary of the method: as §1

HCV replicon 1AQ30D = conditions: Replicon Assay B
HCV replicon 1B = conditions: Replicon Assay B
[1] = read-out: 1A Y93H IC50, replicon 1AY93H
[2] = read-out: 1A Q30D IC50, replicon 1AQ30D
[3] = read-out: 1A Y93H IC50, HCV replicon 1A Y93H
[4] = Hepatitis C virus, HCV replicon 1A
[5] = read-out: 2B IC50, HCV replicon 2B
[6] = read-out: 1A Q30D IC50, HCV replicon 1A Q30D
[7] = Hepatitis C virus, HCV replicon 1B
[8] = Hepatitis C virus, read-out: 1A Q30D IC50 (nM), replicon 1AQ30D
[9] = Hepatitis C virus, read-out: 1A Y93H IC50 (nM), replicon 1AY93H
[10] = Hepatitis C virus, read-out: 2B IC50 (nM), replicon 2B

| Structure (SMILES) | IC50 (HCV replicon 1AY93H; [1]) [nM] | IC50 (HCV replicon 1A; replicon 1A) [pM] | IC50 (HCV replicon 2B; read-out: 2B IC50, replicon 2B) [nM] | IC50 (HCV replicon 1AQ30D; [2]) [nM] | IC50 (HCV replicon 1B; replicon 1B) [pM] | IC50 (HCV replicon 1A; Hepatitis C virus, replicon 1A) [pM] | IC50 (HCV replicon 1AQ30D; [8]) [nM] | IC50 (HCV replicon 1B; Hepatitis C virus, replicon 1B) [pM] | also measured |
| --- | --- | --- | --- | --- | --- | --- | --- | --- | --- |
| COC(=O)N[C@H](C(=O)N1CCC[C@H]1c1ncc(-c2cc(F)c3c(c2)OC(c2ccc(C4CC4)s2)n2c-3c(F)c3cc(-c4cnc([C@@H]5CCCC5C(=O)[C@@H](NC(=O)OC)C5CCOCC5)[nH]4)ccc32)[nH]1)C(C)C (single isomer, unassigned) [Compound 363] | 0.0048 | 1.5 | 0.0037 | 0.0439 | 2.1 | – | – | – | – |
| COC(=O)N[C@H](C(=O)N1CCC[C@H]1c1ncc(-c2cc(C)c3c(c2)OC(c2ccc(C4CC4)s2)n2c-3cc3cc(-c4cnc([C@@H]5C[C@H]6C[C@H]6N5C(=O)[C@@H](NC(=O)OC)C(C)C)[nH]4)ccc32)[nH]1)C(C)C (single isomer, unassigned) [Compound 754] | – | – | – | – | – | – | – | – | IC50 (HCV replicon 1AY93H; [3]): 0.042 nM; IC50 (HCV replicon 1A; [4]): 2.4 pM; IC50 (HCV replicon 2B; [5]): 0.039 nM; IC50 (HCV replicon 1AQ30D; [6]): 0.433 nM; IC50 (HCV replicon 1B; [7]): 2.6 pM |
| COC(=O)N[C@H](C(=O)N1[C@@H]2C[C@@H]2C[C@H]1c1ncc(-c2cc(F)c3c(c2)OC(c2ccc(C4CC4)s2)n2c-3cc3cc(-c4cnc([C@@H]5C[C@H]6C[C@H]6N5C(=O)[C@@H](NC(=O)OC)C(C)C)[nH]4)ccc32)[nH]1)C(C)C (single isomer, unassigned) [Compound 87] | 0.002 | – | 0.19 | – | – | 1.2 | 0.15 | 1.3 | – |
| COC(=O)N[C@H](C(=O)N1CCC[C@H]1c1ncc(-c2ccc3c(c2)OC(c2ccc(C4CC4)s2)n2c-3cc3cc(-c4cnc([C@@H]5CCCN5C(=O)[C@@H](NC(=O)OC)C5CCOCC5)[nH]4)ccc32)[nH]1)C(C)C (single isomer, unassigned) [Compound 335] | 0.0052 | 2.5 | 0.004 | – | – | – | 0.0639 | 1.2 | – |
| CCc1ccc(C2Oc3cc(-c4cnc(C5CCCN5C(=O)C(NC(=O)OC)C5C[C@@H](C)O[C@@H](C)C5)[nH]4)ccc3-c3cc4c(F)c(-c5cnc([C@@H]6CCCN6C(=O)[C@@H](NC(=O)OC)C(C)C)[nH]5)ccc4n32)s1 (single isomer, unassigned) [Compound 359] | 0.0826 | 3.6 | 0.0519 | – | – | – | 0.848 | 1.9 | – |
| CCCc1ccc(C2Oc3cc(-c4cnc([C@@H]5CCCN5C(=O)[C@@H](NC(=O)OC)C(C)C)[nH]4)cc(F)c3-c3cc4cc(-c5cnc([C@@H]6CCCN6C(=O)C(NC(=O)OC)C6C[C@@H](C)O[C@@H](C)C6)[nH]5)ccc4n32)s1 (single isomer, unassigned) [Compound 370] | 0.0022 | 1.4 | 0.0066 | 0.0454 | 2 | – | – | – | – |
| COC(=O)NC(C(=O)N1[C@@H]2C[C@@H]2C[C@H]1c1ncc(-c2ccc3c(c2)cc2n3C(c3ccc(C4CC4)s3)Oc3cc(-c4cnc([C@@H]5CCCN5C(=O)[C@@H](NC(=O)OC)C(C)C)[nH]4)cc(F)c3-2)[nH]1)C1CCOC(C)(C)C1 (single isomer, unassigned) [Compound 276] | 0.001 | – | 0.005 | – | – | 1.5 | 0.018 | 2.4 | – |
| COC(=O)NC(C(=O)N1CCC[C@H]1c1ncc(-c2ccc3c(c2)cc2n3C(c3ccc(C4CC4)s3)Oc3cc(-c4cnc([C@@H]5CCCN5C(=O)[C@@H](NC(=O)OC)C(C)C)[nH]4)cc(F)c3-2)[nH]1)C1CCCCO1 (single isomer, unassigned) [Compound 343] | 0.37 | 1 | 0.829 | 0.704 | 2.3 | – | – | – | – |
| CCc1ccc(C2Oc3cc(-c4cnc([C@@H]5CCCN5C(=O)[C@@H](NC(=O)OC)C(C)C)[nH]4)cc(F)c3-c3cc4cc(-c5cnc([C@@H]6CCCN6C(=O)[C@H](NC(=O)OC)C6C[C@@H](C)O[C@@H](C)C6)[nH]5)ccc4n32)s1 (stereo partly shown) [Compound 144] | – | – | – | – | – | 3 | 0.057 | 2.1 | IC50 (HCV replicon 1AY93H; [9]): 0.003 nM; IC50 (HCV replicon 2B; [10]): 0.022 nM |
| COC(=O)N[C@H](C(=O)N1CCC[C@H]1c1ncc(-c2cc(C)c3c(c2)OC(c2ccc(C4CC4)s2)n2c-3cc3cc(-c4cnc([C@@H]5C[C@H]6C[C@H]6N5C(=O)[C@@H](NC(=O)OC)C5CCOCC5)[nH]4)ccc32)[nH]1)C(C)C (single isomer, unassigned) [Compound 763] | – | – | – | – | – | – | – | – | IC50 (HCV replicon 1AY93H; [3]): 0.12 nM; IC50 (HCV replicon 1A; HCV replicon 1A): 2.7 pM; IC50 (HCV replicon 2B; [5]): 0.062 nM; IC50 (HCV replicon 1AQ30D; [6]): 2.15 nM; IC50 (HCV replicon 1B; HCV replicon 1B): 2.5 pM |
| COC(=O)NC(C(=O)N1[C@@H]2C[C@@H]2C[C@H]1c1ncc(-c2ccc3c(c2)cc2n3C(c3ccc(C4CC4)s3)Oc3cc(-c4cnc([C@@H]5CCCN5C(=O)[C@@H](NC(=O)OC)C(C)C)[nH]4)cc(F)c3-2)[nH]1)C1CCOC(C)(C)C1 (stereo partly shown) [Compound 275] | – | – | – | – | – | 1.9 | 0.023 | 3.2 | IC50 (HCV replicon 1AY93H; [9]): 0.003 nM; IC50 (HCV replicon 2B; [10]): 0.006 nM |
| COC(=O)NC(C(=O)N1CCC[C@H]1c1ncc(-c2ccc3c(c2)cc2n3C(c3ccc(C4CC4)s3)Oc3cc(-c4cnc([C@@H]5CCCN5C(=O)[C@@H](NC(=O)OC)C(C)C)[nH]4)cc(F)c3-2)[nH]1)C1CCO[C@H](C)C1 (single isomer, unassigned) [Compound 135] | 0.004 | 2.4 | 0.006 | 0.027 | 3 | – | – | – | – |
| CCc1ccc(C2Oc3cc(-c4cnc([C@@H]5CCCN5C(=O)[C@@H](NC(=O)OC)C(C)C)[nH]4)cc(F)c3-c3cc4cc(-c5cnc([C@@H]6CCCN6C(=O)[C@@H](NC(=O)OC)C6CCOCC6)[nH]5)ccc4n32)s1 (single isomer, unassigned) [Compound 336] | 0.062 | – | 0.128 | 1.5 | – | 2.2 | – | 1.1 | – |
| COC(=O)NC(C(=O)N1CCC[C@H]1c1ncc(-c2ccc3c(c2)cc2n3C(c3ccc(C4CCCC4)s3)Oc3cc(-c4cnc([C@@H]5CCCN5C(=O)[C@@H](NC(=O)OC)C(C)C)[nH]4)cc(F)c3-2)[nH]1)C1C[C@@H](C)O[C@@H](C)C1 (single isomer, unassigned) [Compound 656] | – | – | – | – | – | – | – | – | IC50 (HCV replicon 1AY93H; [3]): 0.0025 nM; IC50 (HCV replicon 1A; HCV replicon 1A): 1.5 pM; IC50 (HCV replicon 2B; [5]): 0.0026 nM; IC50 (HCV replicon 1AQ30D; [6]): 0.0481 nM; IC50 (HCV replicon 1B; HCV replicon 1B): 2.8 pM |
| COC(=O)N[C@H](C(=O)N1CCC[C@H]1c1ncc(-c2cc(F)c3c(c2)OC(c2cc4c(s2)CCC4)n2c-3cc3cc(-c4cnc([C@@H]5C[C@H]6C[C@H]6N5C(=O)[C@@H](NC(=O)OC)C5C[C@@H](C)O[C@@H](C)C5)[nH]4)ccc32)[nH]1)C(C)C (single isomer, unassigned) [Compound 553] | – | – | – | – | – | – | – | – | IC50 (HCV replicon 1AY93H; [3]): 0.0396 nM; IC50 (HCV replicon 1A; HCV replicon 1A): 44.1 pM; IC50 (HCV replicon 2B; [5]): 0.218 nM; IC50 (HCV replicon 1AQ30D; [6]): 0.708 nM; IC50 (HCV replicon 1B; HCV replicon 1B): 48.2 pM |
| COC(=O)NC(C(=O)N1CCC[C@H]1c1ncc(-c2cc(F)c3c(c2)OC(c2ccc(C4CC4)s2)n2c-3cc3cc(-c4cnc([C@@H]5CCCN5C(=O)C(NC(=O)OC)C5C[C@@H](C)O[C@@H](C)C5)[nH]4)ccc32)[nH]1)C1C[C@@H](C)O[C@@H](C)C1 (single isomer, unassigned) [Compound 301] | 0.11 | 2.5 | – | – | – | – | 0.33 | 2 | IC50 (HCV replicon 2B; [10]): 0.037 nM |
| COC(=O)N[C@H](C(=O)C1CCC[C@H]1c1ncc(-c2ccc3c(c2)cc2n3C(c3ccc(C(F)(F)F)s3)Oc3cc(-c4cnc([C@@H]5CCCN5C(=O)[C@@H](NC(=O)OC)C(C)C)[nH]4)cc(F)c3-2)[nH]1)C(C)C (single isomer, unassigned) [Compound 89] | 0.033 | – | 0.063 | – | – | 1 | 0.33 | 1.5 | – |
| COC(=O)N[C@H](C(=O)N1CCC[C@H]1c1ncc(-c2ccc3c(c2)cc2n3C(c3ccc(C4CC4)s3)Oc3cc(-c4cnc([C@@H]5CCCN5C(=O)[C@@H](NC(=O)OC)C5CCOCC5)[nH]4)cc(C)c3-2)[nH]1)C(C)C (single isomer, unassigned) [Compound 123] | 0.59 | 1.2 | 0.064 | 0.38 | 3.1 | – | – | – | – |
| CCc1ccc(C2Oc3cc(-c4cnc([C@@H]5CCCN5C(=O)[C@@H](NC(=O)OC)C(C)C)[nH]4)cc(C)c3-c3cc4cc(-c5cnc([C@@H]6CCCN6C(=O)C(NC(=O)OC)C6C[C@@H](C)O[C@@H](C)C6)[nH]5)ccc4n32)s1 (single isomer, unassigned) [Compound 543] | – | – | – | – | – | – | – | – | IC50 (HCV replicon 1AY93H; [3]): 0.0394 nM; IC50 (HCV replicon 1A; [4]): 5.43 pM; IC50 (HCV replicon 2B; [5]): 0.0111 nM; IC50 (HCV replicon 1AQ30D; Hepatitis C virus, read-out: 1A Q30D IC50, HCV replicon 1A Q30D): 0.311 nM; IC50 (HCV replicon 1B; [7]): 8.46 pM |
| COC(=O)N[C@H](C(=O)N1[C@@H]2C[C@@H]2C[C@H]1c1ncc(-c2ccc3c(c2)OC(c2ccc(C4CC4)s2)n2c-3cc3cc(-c4cnc([C@@H]5C[C@H]6C[C@H]6N5C(=O)[C@@H](NC(=O)OC)C(C)C)[nH]4)ccc32)[nH]1)C(C)C (single isomer, unassigned) [Compound 8] | – | 17.4 | – | – | 2.7 | – | – | – | IC50 (HCV replicon 1AY93H; replicon 1AY93H, read-out: 1A Y93H IC50): 0.33 nM; IC50 (HCV replicon 2B; replicon 2B, read-out: 2B IC50): 0.14 nM; IC50 (HCV replicon 1AQ30D; replicon 1AQ30D, read-out: 1A Q30D IC50): 0.47 nM |
